In US20210032257A1, “(E)-1-(4-(DIMETHYLAMINO)BUT-2-ENOYL)PYRROLIDIN-3-YL 4-((3-ISOPROPYL-5-METHYLPYRAZOLO[1,5-A]PYRIMIDIN-7-YL)AMINO)PIPERIDINE-1-CARBOXYLATE FOR INHIBITING CDK7” (Eli Lilly and Company, priority 2017, published 2021):

What was measured:
Assay in all cases: Biomarker study proliferation (CellTiter-Glo)
Format in all cases: cell-based
NCIH226 = test system: NCIH226
Outline: (§1)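 7-day growth assay: 5000 cells/well, overnight attachment, 10-pt 1:3 dose series diluted via OPTIMEM + 10% FBS. Staurosporine 5 μM final = max inhibition. Readout CellTiter-Glo luminescence after 15 min RT.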

COV318 = conditions: COV318, OVARY, 7 days
Outline: as §1

JHH7 = test system: JHH7
Outline: as §1

HCC1806 = test system: HCC1806
Outline: as §1

PLCPRF5 = test system: PLCPRF5
Outline: as §1

KYSE180 = test system: KYSE180
Outline: as §1

SNU16 = test system: SNU16
Outline: as §1

MOLT4 = test system: MOLT4
Outline: as §1

MDST8 = test system: MDST8
Outline: as §1

OVCAR8 = test system: OVCAR8
Outline: as §1

HCC1187 = test system: HCC1187
Outline: as §1

HEP3B217 = test system: HEP3B217
Outline: as §1

CORL311 = test system: CORL311
Outline: as §1

NCIH1155 = test system: NCIH1155
Outline: as §1

SNU1 = test system: SNU1
Outline: as §1

SNU478 = test system: SNU478
Outline: as §1

NCIH1734 = test system: NCIH1734
Outline: as §1

RKO = test system: RKO
Outline: as §1

[1] = 168 h, read-out: Anti-proliferation effect IC50

Cc1cc(NC2CCN(C(=O)O[C@H]3CCN(C(=O)/C=C/CN(C)C)C3)CC2)n2ncc(C(C)C)c2n1 [Example 1, [(3S)-1-[(E)-4-(dimethylamino)but-2-enoyl]pyrrolidin-3-yl] 4-[(3-isopropyl-5-methyl-pyrazolo[1,5-a]pyrimidin-7-yl)amino]piperidine-1-carboxylate]
IC50 (NCIH226; Homo sapiens, NCI-H226, 168 h, read-out: Anti-proliferation effect IC50): 1.2 µM
Anti-proliferation effect % Inh. (NCIH226; NCIH226, LUNG, 7 days): 43%
Anti-proliferation effect Outcome (NCIH226; NCIH226, LUNG, 7 days): Insensitive (insensitive (IC50≥1 μM))
IC50 (COV318; [1]): > 10 µM
Anti-proliferation effect % Inh. (COV318): 40%
IC50 (JHH7; JHH7, 168 h, read-out: Anti-proliferation effect IC50): 0.027 µM
Anti-proliferation effect % Inh. (JHH7; JHH7, LIVER, 7 days): 88%
Anti-proliferation effect Outcome (JHH7; JHH7, LIVER, 7 days): Cytotoxic (cytotoxic (IC50<1 μM and % inhibition ≥70%))
Anti-proliferation effect % Inh. (HCC1806; HCC1806, BREAST, 7 days): 99%
Anti-proliferation effect Outcome (HCC1806; HCC1806, BREAST, 7 days): Cytotoxic (cytotoxic (IC50<1 μM and % inhibition ≥70%))
IC50 (HCC1806; Homo sapiens, HCC1806, 168 h, read-out: Anti-proliferation effect IC50): 0.014 µM
IC50 (PLCPRF5; Homo sapiens, PLC-PRF-5, 168 h, read-out: Anti-proliferation effect IC50): > 10 µM
Anti-proliferation effect % Inh. (PLCPRF5; PLCPRF5, LIVER, 7 days): 41%
Anti-proliferation effect Outcome (PLCPRF5; PLCPRF5, LIVER, 7 days): Insensitive (insensitive (IC50≥1 μM))
IC50 (KYSE180; Homo sapiens, KYSE-180, 168 h, read-out: Anti-proliferation effect IC50): 0.103 µM
Anti-proliferation effect % Inh. (KYSE180; KYSE180, OESOPHAGUS, 7 days): 68%
Anti-proliferation effect Outcome (KYSE180; KYSE180, OESOPHAGUS, 7 days): Cytostatic (cytostatic (IC50<1 μM and % inhibition <70%))
IC50 (SNU16; Homo sapiens, SNU-16, 168 h, read-out: Anti-proliferation effect IC50): 0.017 µM
Anti-proliferation effect % Inh. (SNU16; SNU16, STOMACH, 7 days): 84%
Anti-proliferation effect Outcome (SNU16; SNU16, STOMACH, 7 days): Cytotoxic (cytotoxic (IC50<1 μM and % inhibition ≥70%))
IC50 (MOLT4; Homo sapiens, MOLT-4, 168 h, read-out: Anti-proliferation effect IC50): 0.04 µM
Anti-proliferation effect % Inh. (MOLT4; MOLT4, BLOOD, 7 days): 99%
Anti-proliferation effect Outcome (MOLT4; MOLT4, BLOOD, 7 days): Cytotoxic (cytotoxic (IC50<1 μM and % inhibition ≥70%))
IC50 (MDST8; MDST8, 168 h, read-out: Anti-proliferation effect IC50): 0.049 µM
Anti-proliferation effect % Inh. (MDST8; MDST8, INTESTINE, 7 days): 88%
Anti-proliferation effect Outcome (MDST8; MDST8, INTESTINE, 7 days): Cytotoxic (cytotoxic (IC50<1 μM and % inhibition ≥70%))
IC50 (OVCAR8; Homo sapiens, OVCAR-8, 168 h, read-out: Anti-proliferation effect IC50): 0.065 µM
Anti-proliferation effect % Inh. (OVCAR8; OVCAR8, OVARY, 7 days): 90%
Anti-proliferation effect Outcome (OVCAR8; OVCAR8, OVARY, 7 days): Cytotoxic (cytotoxic (IC50<1 μM and % inhibition ≥70%))
Anti-proliferation effect % Inh. (HCC1187; HCC1187, BREAST, 7 days): 73%
Anti-proliferation effect Outcome (HCC1187; HCC1187, BREAST, 7 days): Cytotoxic (cytotoxic (IC50<1 μM and % inhibition ≥70%))
IC50 (HCC1187; Homo sapiens, HCC1187, 168 h, read-out: Anti-proliferation effect IC50): 0.027 µM
IC50 (HEP3B217; [1]): 0.033 µM
Anti-proliferation effect % Inh. (HEP3B217; HEP3B217, LIVER, 7 days): 66%
Anti-proliferation effect Outcome (HEP3B217; HEP3B217, LIVER, 7 days): Cytostatic (cytostatic (IC50<1 μM and % inhibition <70%))
IC50 (CORL311; [1]): 0.095 µM
Anti-proliferation effect % Inh. (CORL311; CORL311, LUNG, 7 days): 75%
Anti-proliferation effect Outcome (CORL311; CORL311, LUNG, 7 days): Cytotoxic (cytotoxic (IC50<1 μM and % inhibition ≥70%))
IC50 (NCIH1155; Homo sapiens, NCI-H1155, 168 h, read-out: Anti-proliferation effect IC50): 0.043 µM
Anti-proliferation effect % Inh. (NCIH1155; NCIH1155, LUNG, 7 days): 51%
Anti-proliferation effect Outcome (NCIH1155; NCIH1155, LUNG, 7 days): Cytostatic (cytostatic (IC50<1 μM and % inhibition <70%))
IC50 (SNU1; Homo sapiens, SNU1, 168 h, read-out: Anti-proliferation effect IC50): 0.105 µM
Anti-proliferation effect % Inh. (SNU1; SNU1, STOMACH, 7 days): 68%
Anti-proliferation effect Outcome (SNU1; SNU1, STOMACH, 7 days): Cytostatic (cytostatic (IC50<1 μM and % inhibition <70%))
IC50 (SNU478; [1]): 0.032 µM
Anti-proliferation effect % Inh. (SNU478; SNU478, BILIARY, 7 days): 92%
Anti-proliferation effect Outcome (SNU478; SNU478, BILIARY, 7 days): Cytotoxic (cytotoxic (IC50<1 μM and % inhibition ≥70%))
IC50 (NCIH1734; Homo sapiens, NCI-H1734, 168 h, read-out: Anti-proliferation effect IC50): 0.024 µM
Anti-proliferation effect % Inh. (NCIH1734; NCIH1734, LUNG, 7 days): 76%
Anti-proliferation effect Outcome (NCIH1734; NCIH1734, LUNG, 7 days): Cytotoxic (cytotoxic (IC50<1 μM and % inhibition ≥70%))
IC50 (RKO; Homo sapiens, 168 h, read-out: Anti-proliferation effect IC50): 0.118 µM
Anti-proliferation effect % Inh. (RKO; INTESTINE, 7 days): 61%
Anti-proliferation effect Outcome (RKO; INTESTINE, 7 days): Cytostatic (cytostatic (IC50<1 μM and % inhibition <70%))
